Test results as given in US6608111B1, “Method for treating or preventing prostatic conditions” (Southern Illinois University Office of Research, …, priority 1998, dated 2003).
“Also recorded” adds a separate entry of the source.

Legend:
[1] = tested on: rats, cats, chicks, and guinea pigs; details: animals including rats; cited from earlier work
[2] = tested on: MCF-7 human mammary cancer cell line; details: human MCF-7 cells in culture; cited from earlier work
women = details: clinical; cited from earlier work
[3] = tested on: male and female Wistar rats; assay: Experiment 2: chronic treatment of male and female rats, 5-6 weeks; assay type: in vivo, rat; details: for Food intake: n = 5
Procedure: Twenty-five male and 25 female Wistar rats, 7-8 weeks of age, were randomly assigned to groups of five animals, respectively, for treatment with vehicle only (V), estradiol (E), (±)-Z-BDDA, (+)-Z-BDDA, or (−)-Z-BDDA. Each animal in group V received a daily 0.1 cc injection of a 10% ethanol-90% olive oil solution; the other treatments received their respective compound as a daily 0.1 cc injection, e.g., 2.5 μg of compound/g of body weight, in a 10% ethanol-90% olive oil solution. A temperature of 21° C. and an artificial 12-h light-dark cycle were maintained in the animal room. All animals were maintained on standard chow in powdered form, the males for five weeks and the females for six weeks, then sacrificed after an overnight fast under i.p. pentobarbital anesthesia (50 mg/kg). Animal weight and food intake were measured weekly during the study and subsequent FER values were determined. During sacrifice, blood was collected (via cardiac puncture) for glucose, luteinizing hormone, prolactin and testosterone measurements. The amounts of luteinizing hormone, prolactin and testosterone were measured to help elucidate the target tissue of the respective compounds in male and female rats. Immediately following sacrifice the fat pads and reproductive organs were removed and weighed.
(§1) Experiments 1 and 2 employed a randomized design. All data were analyzed by one-way analysis of variance (ANOVA,)and post-hoc comparisons were made with Tukey pairwise comparisons test. Significance was confirmed at p≦0.05 (SYSTAT 7.0, SPSS INC., 1997), and all values are reported as means±standard error of the mean.

[4] = even at 1000-times the estrogenic dosage; cited from earlier work
[5] = tested on: uterine cytosolic estrogen receptors (ER); details: competitive binding-inhibition, relative to E2; cited from earlier work
female mice = details: E2 5 g/animal/day, (±)-Z-BDDA 5, 50, and 500 g/animal/day, versus control group; cited from earlier work
[6] = tested on: male and female Sprague-Dawley rats; assay: Experiment 1: chronic treatment of male and female rats, 4 weeks; assay type: in vivo, rat; details: mean ± SEM; for Food intake: n = 5
Procedure: Twenty-five male and 25 female Sprague-Dawley rats, 9-10 weeks of age, were randomly assigned to groups of five animals, respectively, as a control group (no treatment) (C), for treatment with vehicle only (V), estradiol (E), (±)-Z-BDDA, or (+)-Z-BDDA. Each animal in group V received a daily 0.1 cc injection of a 10% ethanol-90% olive oil solution; the other treatments received their respective compound as a daily 0.1 cc injection, e.g., 2.5 μg of compound/g of body weight, in a 10% ethanol-90% olive oil solution. A temperature of 21° C. and an artificial 12-h light-dark cycle was maintained in the animal room. All animals were maintained on standard chow in powdered form for four weeks, then sacrificed after an overnight fast under i.p. pentobarbital anesthesia (50 mg/kg). Animal weight and food intake were measured weekly during the study, and the subsequent food-efficiency ratio [FER(g of weight change/g of food intake)] was determined. During sacrifice, blood was collected (via cardiac puncture) for cholesterol measurements. Immediately following sacrifice the fat pads and reproductive organs were removed and weighed.
as §1

[7] = in vivo assays, compared with estradiol; cited from earlier work
[8] = female rats, 2.5 ug/g of body weight daily, six weeks, mean ± SEM
[9] = male rats, 2.5 ug/g of body weight daily, five weeks, mean ± SEM
[10] = female rats, 2.5 ug/g of body weight daily
[11] = male rats, 2.5 ug/g of body weight daily

Question: What does the source list for CC[C@@H](c1ccc2cc(OC)ccc2c1)C(C)(C)C(=O)O [compound 2, (−)-3-[2-(6-methoxynaphthyl)]-2,2-dimethyl-pentanoic acid]?
Answer: estrogenic activity (estrogenicity) in animals [1]: strongest estrogenic activity; also recorded: highly estrogenic in animals, equivalent to 17β-estradiol; MCF-7 cell proliferation (estrogenicity) [2]: very little effect; estrogenic response in women / humans (women): high dosages were required to elicit strong estrogenic responses

Question: What does the source list for “(±)-Z-bisdehydrodoisynolic acid [(±)-Z-BDDA]”?
Answer: Uterus/testis weight (g) ([3]; female rats (uterus), 2.5 ug/g of body weight daily, six weeks, mean ± SEM): 4.25 ± 1.04^1 g; Blood glucose [3, 8]: 80.40 ± 5.66 mg/dL; FER (food efficiency ratio) [3, 8]: 0.017 ± 0.003^1,2; Food intake [3, 8]: 704.0 ± 51.7 g; weight gain (percent weight change) ([3]; female rats, both experiments (FIGS. 2 and 3), 2.5 μg/g daily): repress weight gain slightly more than did (+)-Z-BDDA and E2; Uterus/testis weight (g) ([3]; male rats (testis), 2.5 ug/g of body weight daily, five weeks, mean ± SEM): 0.78 ± 0.02^1 g; testosterone ([3]; male rats, 2.5 μg/g daily, compared to the vehicle): less pronounced; Blood glucose [3, 9]: 98.60 ± 14.00 mg/dL; FER (food efficiency ratio) [3, 9]: −0.04 ± 0.01^1,2; Prostate weight [3, 9]: 0.16 ± 0.02 g; Food intake [3, 9]: 530.0 ± 33.0 g; toxicity and carcinogenicity [4]: neither toxicity nor carcinogenicity; MCF-7 cell proliferation (estrogenicity) [2]: high estrogenic potency; binding affinity as fraction of that of E2 [5]: 0.01-0.03; rate of weight gain (female mice): diminished; Uterus/testis weight (g) ([6]; female rats (uterus), 2.5 ug/g of body weight daily): 2.04 ± 0.45^1 g; Food intake ([6]; female rats, 2.5 ug/g of body weight daily injection): 318.2 ± 21.8 g; FER (food efficiency ratio) ([6]; female rats, 2.5 ug/g of body weight daily, g of weight change/g of food intake): −0.023 ± 0.027^1; Cholesterol (mg/dl) [6, 10]: 30.1 ± 2.8^1 mg/dl; Visceral fat [6, 10]: 1.3 ± 0.1 g; Uterus/testis weight (g) ([6]; male rats (testis), 2.5 ug/g of body weight daily): 0.72 ± 0.06^1,2 g; Cholesterol (mg/dl) [6, 11]: 36.2 ± 2.6^1,2 mg/dl; FER (food efficiency ratio) [6, 11]: −0.099 ± 0.009^1,2; Prostate weight (g) [6, 11]: 0.08 ± 0.02^1,2 g; Visceral fat (g) [6, 11]: 4.5 ± 0.4^2 g; Food intake [6, 11]: 344.6 ± 15.5 g; estrogenicity: vaginal cornification and uterotropism [7]: rivaling or even surpassing estradiol
